In patent publication US7495027B2, “3-aryl-4-hydroxyfuranone compounds and the human and animal health use thereof” (Wyeth, priority 2003, dated 2009):
Values after ≈ are worked out from the molar mass of the structure shown. Like-named read-outs stand apart in the source and are kept apart here.

What was measured:
[1] = tested on: enterococci; test: Minimum inhibitory concentration, microdilution broth method, enterococci; format: cell-based; settings: Mueller-Hinton broth, 18-22 hours at 35° C.; for MIC: Enterococcus faecalis
Description: (§1) Evaluation of the Minimum Inhibitory Concentration of Test Compounds Against A Variety of Bacterial Strains
(§2) In this evaluation the minimal inhibitory concentration (MIC) of test compounds against Gram positive and Gram negative bacteria is performed using the microdilution broth method as recommended by the National Committee for Clinical Laboratory Standards (Approved Standards M7-A5 2000). Mueller-Hinton broth is used for the enterobacteriaceae, staphylococci and enterococci. Streptococci are also tested in Mueller-Hinton broth supplemented with 5% horse blood (LHB). Test organisms include recent clinical isolates that are resistant to methicillin, penicillin and/or vancomycin. […].

[2] = target: E. coli Uridine-diphosphate-N-acetvimuramoyl: L-alanine lipase, MurC (Escherichia coli, UniProt P17952); test: Inhibitory activity against MurC (E. coli); format: biochemical; settings: (E) E. coli enzyme; for IC50: read-out: MurC IC50 (converted)
Sequence of E. coli Uridine-diphosphate-N-acetvimuramoyl: L-alanine lipase, MurC (P17952 whole entry): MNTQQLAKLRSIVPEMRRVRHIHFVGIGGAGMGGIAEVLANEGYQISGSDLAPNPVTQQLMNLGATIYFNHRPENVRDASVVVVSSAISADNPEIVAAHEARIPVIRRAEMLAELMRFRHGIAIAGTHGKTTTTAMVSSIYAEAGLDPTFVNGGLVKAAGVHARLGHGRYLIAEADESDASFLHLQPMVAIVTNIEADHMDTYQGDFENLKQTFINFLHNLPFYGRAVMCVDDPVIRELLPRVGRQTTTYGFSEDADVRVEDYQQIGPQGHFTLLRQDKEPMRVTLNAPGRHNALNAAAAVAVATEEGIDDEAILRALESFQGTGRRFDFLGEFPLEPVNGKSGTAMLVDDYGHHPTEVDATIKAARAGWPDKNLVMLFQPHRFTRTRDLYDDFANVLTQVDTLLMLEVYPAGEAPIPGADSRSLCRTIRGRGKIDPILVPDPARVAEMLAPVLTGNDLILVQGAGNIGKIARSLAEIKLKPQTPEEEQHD
Description: S. aureus and E. coli Uridine-diphosphate-N-acetvimuramoyl: L-alanine lipase, MurC
The buffer is prepared from aqueous reagents with the following final concentrations: 83 mM Tris/HCl (pH 8.0), 50 mM MgC12, and 2 mM ATP.
(§3) Preparation of Enzyme Solution:
A 1 mg/mL stock solution of MurC is prepared in a buffer consisting of 20 mM Tris/HCl (pH 8.5) with 2.5 μM BME. The stock solution is further diluted with the buffer to give a final enzyme concentration of 100 μg/mL for the E. coli stock solution and 70 μg/mL for the S. aureus stock solution.
(§4) Preparation of Test Compound Solutions:
(§5) All test solutions are prepared in DMSO as 10 mg/mL, then diluted with 50 mM Tris/HCl (pH 8.5) to 100 μg/mL.
(§6) Preparation of Stop Solution:
The stop solution is prepared by stirring 1 part 4.2% ammonium molydbate in 4N HCl with 2 parts 0.045% malachite green for 30 min.
In this evaluation, the inhibitory activity of a test compound against MurC, the enzyme which catalyzes the third step of bacterial cell wall bioxynthesis is determined. Experiments are performed by adding 2.5 μl buffer, 2.5 μl 0.5M NH4SO2, 5 μl 2 μM L-Ala, 5 μl enzyme solution and 6.5 μl test compound solution to each well in a 96-well microplate. After a pre-incubation period of 10 mins. at 23° C., 3.75 μl of a 0.75 μM solution of UDP-MurNac is added to each well. Following an incubation period of 10 mins. at 37° C., 210 μl stop solution and 50 μl of a 34% w/v sodium citrate solution are added and color is allowed to develop for 10 mins. at 23° C. (Lanzetta et al., Analytical Biochemistry, 1979, 95) Optical density readings are taken at 660 nm using a Molecular Devices Spectra Max 250 with Soft Max software. Controls are performed using the same procedure and omitting the addition of UDP-MurNac.
Using these values the IC50 is determined by linear regression analysis.

[3] = target: E. coli Uridine-diphosphate-N-acetylmuramoyl-L-alanine: D-glutamate liease, MurD (Escherichia coli, UniProt P14900); test: biochemical; settings: (E) E. coli enzyme
Sequence of E. coli Uridine-diphosphate-N-acetylmuramoyl-L-alanine: D-glutamate liease, MurD (P14900 whole entry): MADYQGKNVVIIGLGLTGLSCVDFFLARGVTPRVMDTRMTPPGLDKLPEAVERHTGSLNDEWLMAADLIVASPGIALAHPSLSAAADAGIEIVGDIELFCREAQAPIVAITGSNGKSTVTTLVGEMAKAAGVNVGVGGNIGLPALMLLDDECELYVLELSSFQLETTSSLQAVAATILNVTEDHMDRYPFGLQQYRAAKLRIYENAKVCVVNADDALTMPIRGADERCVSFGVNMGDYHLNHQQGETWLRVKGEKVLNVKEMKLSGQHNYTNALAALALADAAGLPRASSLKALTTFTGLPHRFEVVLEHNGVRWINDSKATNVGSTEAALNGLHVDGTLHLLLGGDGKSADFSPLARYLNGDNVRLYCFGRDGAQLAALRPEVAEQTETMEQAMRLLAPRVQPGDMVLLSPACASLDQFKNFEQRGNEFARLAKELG
Description: (§7) S. aureus and E. coli Uridine-diphosphate-N-acetylmuramoyl-L-alanine: D-glutamate liease, MurD
The buffer is prepared from aqueous reagents with the following final concentrations: 83 mM Tris/HCl (pH 8.0), 50 mM MgCl2, and 2 mM ATP.
as §3, §4, §5, §6
(§8) In this evaluation, the inhibitory activity of a test compound against MurD, the enzyme which catalyzes the fourth step of bacterial cell wall biosynthesis is determined.

[4] = tested on: staphylococci; test: Minimum inhibitory concentration, microdilution broth method, staphylococci; format: cell-based; settings: Mueller-Hinton broth, 18-22 hours at 35° C.; for MIC: Staphylococcus aureus
Description: as §1, §2

[5] = tested on: Streptococci; test: Minimum inhibitory concentration, microdilution broth method, streptococci; format: cell-based; settings: Mueller-Hinton broth with 5% horse blood, 18-22 hours at 35° C.; for MIC: S. pneumo GC 1894
Description: as §1, §2

[6] = target: T1, S. aureus Uridine-diphosphate-N-acetylmuramoyl-L-alanine: D-glutamate liease, MurD (Staphylococcus aureus, UniProt Q2FZ92); test: biochemical; settings: (S) S. aureus enzyme
T1 sequence (Q2FZ92 1-449): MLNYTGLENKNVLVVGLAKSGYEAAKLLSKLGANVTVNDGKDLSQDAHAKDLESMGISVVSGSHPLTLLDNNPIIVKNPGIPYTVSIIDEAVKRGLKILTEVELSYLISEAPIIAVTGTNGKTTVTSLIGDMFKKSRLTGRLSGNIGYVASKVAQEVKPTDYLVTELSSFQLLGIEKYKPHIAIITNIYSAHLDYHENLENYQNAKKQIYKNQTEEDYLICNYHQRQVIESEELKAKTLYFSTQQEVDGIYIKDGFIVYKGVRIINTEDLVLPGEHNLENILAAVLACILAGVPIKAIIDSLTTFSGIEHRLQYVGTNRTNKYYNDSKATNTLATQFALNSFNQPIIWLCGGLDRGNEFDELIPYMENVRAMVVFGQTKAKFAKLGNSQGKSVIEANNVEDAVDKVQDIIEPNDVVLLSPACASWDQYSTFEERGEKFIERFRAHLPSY
Description: as §7, §3, §4, §5, §6, §8

[7] = target: E. coli UDP-N-acetylglucosamine enolpyruvoyl transferase, MurA (Escherichia coli, UniProt P0A749); test: biochemical; settings: (E) E. coli enzyme
Sequence of E. coli UDP-N-acetylglucosamine enolpyruvoyl transferase, MurA (P0A749 whole entry): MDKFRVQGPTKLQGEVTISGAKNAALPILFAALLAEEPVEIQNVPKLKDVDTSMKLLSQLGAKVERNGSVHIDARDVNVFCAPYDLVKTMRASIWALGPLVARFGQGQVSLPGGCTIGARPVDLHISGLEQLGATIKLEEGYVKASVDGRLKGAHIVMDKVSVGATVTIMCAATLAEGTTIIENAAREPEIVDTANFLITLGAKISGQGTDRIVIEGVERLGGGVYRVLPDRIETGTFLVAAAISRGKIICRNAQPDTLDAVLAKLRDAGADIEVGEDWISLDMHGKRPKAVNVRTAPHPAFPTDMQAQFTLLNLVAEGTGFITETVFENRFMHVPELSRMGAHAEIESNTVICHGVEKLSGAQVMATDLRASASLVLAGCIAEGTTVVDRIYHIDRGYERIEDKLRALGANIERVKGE
Description: Evaluation of the Inhibitory Activity of Test Compounds Against Enzymes which Catalyze Bacterial Cell Wall Biosynthesis
S. aureus and E. coli UDP-N-acetylglucosamine enolpyruvoyl transferase, MurA
as §3
The enzyme solution is prepared by admixing the following: 50 mM Tris/HCl pH 8.0, […] 1 M Tris, 5 mM DTT, […] 1 M DTT, 20% Glycerol 4 ml 50% Glycerol, add water to 10 ml.
as §6
A procedure similar to that described by C. […] Experiments are performed by adding a solution of test compound (in a mixture of dimethylsulfoxide and water) and an enzyme solution to a well. After a pre-incubation period of 10 mintues at 37° C., Tris/BME buffer and assay buffer are added. A start point optical density (OD0) reading is taken at 340 nm immediately following the addition of assay buffer. After incubation for 1 hr at 37° C., the stop solution is added and the color is allowed to develop for 30 minutes.

[8] = target: E. coli Enopyruvyl-UPD-N-acetylglucosamine reductase, Mur B (Escherichia coli, UniProt P08373); test: biochemical; settings: (E) E. coli enzyme; for IC50: read-out: MurB IC50 (converted)
Sequence of E. coli Enopyruvyl-UPD-N-acetylglucosamine reductase, Mur B (P08373 whole entry): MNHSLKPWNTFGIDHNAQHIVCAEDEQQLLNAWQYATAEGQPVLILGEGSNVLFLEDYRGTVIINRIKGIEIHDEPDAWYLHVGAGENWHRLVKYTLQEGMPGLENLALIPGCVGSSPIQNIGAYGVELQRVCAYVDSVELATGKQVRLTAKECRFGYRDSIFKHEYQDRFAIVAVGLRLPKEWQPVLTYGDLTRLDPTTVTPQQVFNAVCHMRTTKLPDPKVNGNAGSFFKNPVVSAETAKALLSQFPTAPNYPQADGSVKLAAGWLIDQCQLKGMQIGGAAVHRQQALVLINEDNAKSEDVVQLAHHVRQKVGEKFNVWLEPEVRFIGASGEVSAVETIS
Description: S. aureus and E. coli Enopyruvyl-UPD-N-acetylglucosamine reductase, Mur B
Preparation of Tris/BME buffer:
Dilute 17.5 uL of aqueous 5 mM BME (2-mercaptoethanol) to 50 mL with 50 mM Tris/HCl (pH 8.0).
as §3
Dilute aqueous MurB stock solution (0.94 mg/mL) with 200 parts 50 mM Tris/2-BME buffer.
Synthesis of Substrate for MurB (MurA Product EP-UDP-GluNAc):
A mixture of 13 mg UDP-N-acetylglucosamine and 5.5 mg phosphoenolpyruvate are dissolved in 10 mL Tris/BME buffer forming 2 mM concentrations of each reagent in solution.
Preparation of Assay Buffer:
The assay buffer is prepared in water from reagents with the following final concentrations: 100 mM Tris/HCl (pH 8.0), 200 μM NADPH, 100 μM MurB substrate, 10 μM 2-mercaptoethanol, and 10 μM KCl.
Experiments are performed by adding 20 μL of a solution of test compound in a mixture of dimethylsulfoxide and water and 30 μL of enzyme solution to a well. After a pre-incubation period of 20 mins. at 23° C., 50 μL of Tris/BME buffer and 100 μL of assay buffer are added. […] Controls are performed using the same procedure and employing 20 μL of a blank dimethylsulfonide and solvent mixture in place of the test compound solution.
Using these values, the IC50 for each test compound is determined by linear regression analysis.

[9] = E. faecalis GC 2242, read-out: MIC E. faecalis GC 2242
[10] = E. faecalis GC 4555, read-out: MIC E. faecalis GC 4555
[11] = S. aureus GC 1131, read-out: MIC S. aureus GC 1131
[12] = S. aureus GC 4543, read-out: MIC S. aureus GC 4543

SMILES	MIC [1, 9] [µg/mL]	MIC [1, 10] [µg/mL]	IC50 [2] [µM]	IC50 [3] [µM]	MIC [4, 11] [µg/mL]	MIC [4, 12] [µg/mL]	MIC [5] [µg/mL]	IC50 [6] [µM]	IC50 [7] [µM]	IC50 [8] [µM]	MIC E. faecalis GC 2242 ([1]; E. faecalis GC 2242) [µg/mL]	MIC E. faecalis GC 4555 ([1]; E. faecalis GC 4555) [µg/mL]	MurC IC50 [2]	MurD IC50 [3] [µg/mL]	MIC S. aureus GC 1131 ([4]; S. aureus GC 1131) [µg/mL]	MIC S. aureus GC 4543 ([4]; S. aureus GC 4543) [µg/mL]	MIC S. pneumo GC 1894 [5] [µg/mL]	MurD IC50 [6] [µg/mL]	MurA IC50 [7]	MurB IC50 [8]
O=C1O/C(=C\c2ccc(-c3ccccc3F)cc2)C(O)=C1c1ccccc1F [Example 58]	16 (≈ 42.5 µM)	> 128	37.2	> 66.4	8 (≈ 21.3 µM)	16 (≈ 42.5 µM)	< 0.125	> 66.4	> 66.4	> 66.4										
N#Cc1cccc(-c2ccc(/C=C3\OC(=O)C(c4ccccc4C#N)=C3O)cc2)c1 [Example 59]	8 (≈ 20.5 µM)	8 (≈ 20.5 µM)	15.4	12.8	> 128	> 128	32 (≈ 82 µM)	12.8	43.5	15.4										
N#Cc1ccc(C2=C(O)/C(=C/c3ccc(-c4ccc(C#N)cc4)cc3)OC2=O)cc1 [R=H, R1=4-CN—C6H4, R2=4-(4′-CN-biphenyl)]											32 (≈ 82 µM)	64 (≈ 164 µM)	5 (E) μg/mL	5	>128	>128	64 (≈ 164 µM)	> 25	7 (E) μg/mL	15 (E) μg/mL
Cc1ccccc1C1=C(O)/C(=C/c2ccc(-c3ccccc3C)cc2)OC1=O [Example 60]	8 (≈ 21.7 µM)	32 (≈ 86.9 µM)	38	> 67.9	16 (≈ 43.4 µM)	16 (≈ 43.4 µM)	8 (≈ 21.7 µM)	59.7	> 67.9	> 67.9										
O=C1O/C(=C\c2ccc(-c3ccccc3C(F)(F)F)cc2)C(O)=C1c1ccccc1C(F)(F)F [Example 61]	16 (≈ 33.6 µM)	32 (≈ 67.2 µM)	29.4	> 52.5	16 (≈ 33.6 µM)	16 (≈ 33.6 µM)	8 (≈ 16.8 µM)	39.9	> 52.5	> 52.5										
Cc1ccc(C2=C(O)/C(=C/c3ccc(-c4ccc(C)cc4)cc3)OC2=O)cc1 [Example 57]	2 (≈ 5.43 µM)	8 (≈ 21.7 µM)	54.3	46.1	32 (≈ 86.9 µM)	4 (≈ 10.9 µM)	< 0.125	51.6	> 67.9	16.3										
CC(C)(C)c1ccc(-c2ccc(C3=C(O)/C(=C/c4ccc(Cl)c(C(F)(F)F)c4)OC3=O)cc2)cc1 [Example 123]	4 (≈ 8.02 µM)	8 (≈ 16 µM)	> 50.1	> 50.1	16 (≈ 32.1 µM)	16 (≈ 32.1 µM)	0.5 (≈ 1 µM)		42.1	6.01										
CCOc1ccc(-c2ccc(C3=C(O)/C(=C/c4cccc(C(F)(F)F)c4Cl)OC3=O)cc2)cc1 [Example 117]	8 (≈ 16.4 µM)	32 (≈ 65.7 µM)	> 51.3	> 51.3	64 (≈ 131 µM)	32 (≈ 65.7 µM)	0.5 (≈ 1.03 µM)		20.5	14.4										
